Measured values taken from the supplement of paper PMC10307832.

Experiments:
Assay in all cases: relative viability (nuclei count vs DMSO), 5 days (fraction); higher = more cells survive
Ruxolitinib + AZD7762 = compound: N#CC[C@H](C1CCCC1)n1cc(-c2ncnc3[nH]ccc23)cn1 [Ruxolitinib] + NC(=O)Nc1cc(-c2cccc(F)c2)sc1C(=O)N[C@H]1CCCNC1 [AZD7762] (partner 0.2 µM)
How it was run: (§1)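 Medians of duplicate plates are given as relative viability. That measure is the nuclei count in treated wells divided by the count in vehicle wells. Counts were taken on 4× images of lung cancer cell lines in 1536-well plates, 5 days after pin-tool dosing the day after seeding with one drug alone or a fixed anchor-drug dose plus five library-drug doses (not always all listed) in √10 steps.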

Vismodegib + Trametinib = compound: CS(=O)(=O)c1ccc(C(=O)Nc2ccc(Cl)c(-c3ccccn3)c2)c(Cl)c1 [Vismodegib] + CC(=O)Nc1cccc(-n2c(=O)n(C3CC3)c(=O)c3c(Nc4ccc(I)cc4F)n(C)c(=O)c(C)c32)c1 [Trametinib] (partner 0.02 µM)
How it was run: as §1

VE-821 + Trametinib = compound: CS(=O)(=O)c1ccc(-c2cnc(N)c(C(=O)Nc3ccccc3)n2)cc1 [VE-821] + CC(=O)Nc1cccc(-n2c(=O)n(C3CC3)c(=O)c3c(Nc4ccc(I)cc4F)n(C)c(=O)c(C)c32)c1 [Trametinib] (partner 0.02 µM)
How it was run: as §1

Ruxolitinib + Olaparib = compound: N#CC[C@H](C1CCCC1)n1cc(-c2ncnc3[nH]ccc23)cn1 [Ruxolitinib] + O=C(c1cc(Cc2n[nH]c(=O)c3ccccc23)ccc1F)N1CCN(C(=O)C2CC2)CC1 [Olaparib] (partner 8 µM)
How it was run: as §1

Cell Line | relative viability (Ruxolitinib + AZD7762; first compound 0.08 µM) | relative viability (Ruxolitinib + AZD7762; first compound 0.253 µM) | relative viability (Ruxolitinib + AZD7762; first compound 0.8 µM) | relative viability (Ruxolitinib + AZD7762; first compound 2.53 µM) | relative viability (Ruxolitinib + AZD7762; first compound 8 µM) | relative viability (Vismodegib + Trametinib; first compound 0.08 µM) | relative viability (Vismodegib + Trametinib; first compound 0.253 µM) | relative viability (Vismodegib + Trametinib; first compound 0.8 µM) | relative viability (Vismodegib + Trametinib; first compound 2.53 µM) | relative viability (Vismodegib + Trametinib; first compound 8 µM) | relative viability (VE-821 + Trametinib; first compound 0.08 µM) | relative viability (VE-821 + Trametinib; first compound 0.253 µM) | relative viability (VE-821 + Trametinib; first compound 0.8 µM) | relative viability (VE-821 + Trametinib; first compound 2.53 µM) | relative viability (VE-821 + Trametinib; first compound 8 µM) | relative viability (Ruxolitinib + Olaparib; first compound 0.08 µM) | relative viability (Ruxolitinib + Olaparib; first compound 0.253 µM) | relative viability (Ruxolitinib + Olaparib; first compound 0.8 µM) | relative viability (Ruxolitinib + Olaparib; first compound 2.53 µM) | relative viability (Ruxolitinib + Olaparib; first compound 8 µM)
LXF-289 | 1.06 | 1.15 | 1.11 | 1.04 | 1 | 0.675 | 0.654 | 0.723 | 0.664 | 0.648 | 0.708 | 0.641 | 0.773 | 0.745 | 0.741 | 0.994 | 1.1 | 1.13 | 1.03 | 0.924
NCI-H23 | 0.456 | 0.303 | 0.279 | 0.206 | 0.277 | 0.511 | 0.353 | 0.368 | 0.411 | 0.482 | 0.459 | 0.457 | 0.34 | 0.278 | 0.272 | 0.371 | 0.369 | 0.311 | 0.242 | 0.17
NCI-H322M | 0.524 | 0.508 | 0.517 | 0.685 | 0.776 | 0.52 | 0.507 | 0.522 | 0.518 | 0.525 | 0.604 | 0.565 | 0.572 | 0.493 | 0.472 | 0.752 | 0.852 | 0.79 | 0.809 | 1.05
NCI-H358 | 0.5 | 0.653 | 0.504 | 0.404 | 0.445 | 0.151 | 0.139 | 0.14 | 0.128 | 0.139 | 0.143 | 0.139 | 0.139 | 0.138 | 0.134 | 0.494 | 0.544 | 0.534 | 0.495 | 0.442
NCI-H441 | 1.29 | 1.09 | 1.22 | 1.16 | 1.05 | 0.512 |  | 0.409 | 0.469 | 0.489 | 0.547 | 0.516 | 0.371 | 0.57 | 0.38 | 0.508 | 0.54 | 0.502 | 0.472 | 0.484
NCI-H460 |  | 0.626 | 0.696 | 0.656 | 0.676 | 0.175 | 0.132 | 0.127 | 0.141 | 0.107 | 0.185 | 0.0922 | 0.121 | 0.11 | 0.0592 |  | 0.463 | 0.411 | 0.344 | 0.375
NCI-H522 | 0.948 | 0.716 | 1.01 | 0.794 | 0.803 | 0.797 | 0.763 | 0.639 | 0.609 | 0.669 | 0.859 | 0.753 | 0.65 | 0.769 | 0.717 | 0.632 | 0.719 | 0.704 | 0.468 | 0.705
NCI-H596 | 1.35 | 1.04 | 1.21 | 1.09 | 1.27 | 0.746 | 0.82 | 0.744 | 0.779 | 0.896 | 0.78 | 0.802 | 0.752 | 0.798 | 0.594 | 0.761 | 0.71 | 0.844 | 0.696 | 0.751
NCI-H647 | 0.398 | 0.499 | 0.421 | 0.439 | 0.366 | 0.446 | 0.486 | 0.517 | 0.409 | 0.55 | 0.62 | 0.419 | 0.352 | 0.389 | 0.234 | 0.578 | 0.687 | 0.596 | 0.475 | 0.31
NCI-H650 | 0.951 | 1.06 | 1.01 | 0.993 | 0.707 | 0.891 | 0.91 | 0.846 | 0.981 | 1.05 | 0.99 | 1.01 | 1.11 | 1.02 | 1.08 | 0.379 | 0.436 | 0.392 | 0.384 | 0.314
NCI-H727 | 0.701 | 0.461 | 0.587 | 0.8 | 0.979 | 0.446 | 0.367 | 0.405 | 0.403 | 0.418 | 0.398 | 0.432 | 0.416 | 0.422 | 0.396 | 0.715 | 0.8 | 0.603 | 0.826 | 0.645
NCI-H838 | 0.925 | 0.874 | 0.87 | 0.776 | 0.721 | 0.536 | 0.488 | 0.535 | 0.5 | 0.624 | 0.568 | 0.472 | 0.544 | 0.648 | 0.345 | 0.801 | 0.718 | 0.62 | 0.4 | 0.202
NCI-H1355 | 0.729 | 0.735 | 0.878 | 0.604 | 0.668 | 0.47 | 0.417 | 0.392 | 0.39 | 0.406 | 0.53 | 0.424 | 0.349 | 0.429 | 0.381 | 0.745 | 0.749 | 0.798 | 0.655 | 0.616
NCI-H1395 | 0.422 | 0.385 | 0.424 | 0.356 | 0.407 | 0.851 | 0.958 | 0.878 | 0.921 | 1.1 | 1.11 | 0.988 | 0.913 | 1.02 | 0.763 | 0.44 | 0.419 | 0.456 | 0.443 | 0.476
NCI-H1437 | 1.18 | 1.11 | 1.19 | 1.04 | 0.925 | 0.462 | 0.485 | 0.493 | 0.535 | 0.536 | 0.533 | 0.445 | 0.498 | 0.566 | 0.376 | 0.669 | 0.622 | 0.624 | 0.549 | 0.463
NCI-H1648 | 0.739 | 0.817 | 0.658 | 0.914 | 1.15 | 0.38 | 0.48 | 0.383 | 0.49 | 0.535 | 0.581 |  | 0.394 | 0.729 | 0.575 | 0.854 | 0.852 | 1.11 | 1.35 | 1.18
